Experimental data published in ChEMBL document CHEMBL3046747, “Assessment of species specificity of moulting accelerating compounds in Lepidoptera: comparison of activity between Bombyx mori and Spodoptera littoralis by in vitro reporter and in vivo toxicity assays” (Pest Manag Sci, 2010).

Experiments:
[1] = target: T1, Ecdysone receptor (Bombyx mori, UniProt P49881); assay: Antagonist activity at ecdysone receptor in Bombyx mori Bm5 cells assessed as tebufenozide-induced effect treated 24 hr before tebufenozide challenge measured after 24 hr by luciferase reporter gene assay; format: cell-based
T1 sequence (P49881 whole entry): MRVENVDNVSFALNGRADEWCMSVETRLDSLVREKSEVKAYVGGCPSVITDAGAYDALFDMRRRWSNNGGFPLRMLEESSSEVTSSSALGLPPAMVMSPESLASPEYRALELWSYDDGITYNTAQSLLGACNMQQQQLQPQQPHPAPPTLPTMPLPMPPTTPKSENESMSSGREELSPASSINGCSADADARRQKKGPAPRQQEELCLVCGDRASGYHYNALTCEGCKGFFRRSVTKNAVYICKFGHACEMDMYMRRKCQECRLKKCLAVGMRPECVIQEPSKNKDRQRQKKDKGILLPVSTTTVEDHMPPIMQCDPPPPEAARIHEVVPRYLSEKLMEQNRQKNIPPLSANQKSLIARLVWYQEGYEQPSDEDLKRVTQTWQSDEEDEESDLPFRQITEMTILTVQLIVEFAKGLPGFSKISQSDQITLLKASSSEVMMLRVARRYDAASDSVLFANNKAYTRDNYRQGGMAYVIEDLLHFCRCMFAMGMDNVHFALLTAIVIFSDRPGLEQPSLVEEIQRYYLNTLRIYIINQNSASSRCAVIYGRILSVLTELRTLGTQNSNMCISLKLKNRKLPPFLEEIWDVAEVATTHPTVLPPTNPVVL

[2] = Cytotoxicity against Bombyx mori Bm5 cells assessed as cell viability after 24 hr by MTT assay; format: cell-based; details: read-out: pLC50 (converted)
[3] = Ratio of IC50 for ecdysone receptor in Spodoptera littoralis Sl2 cells to LC50 for Spodoptera littoralis Sl2 cells
[4] = target: T2, Ecdysone receptor (Spodoptera littoralis, UniProt E3UJZ5); assay: Antagonist activity at ecdysone receptor in Spodoptera littoralis Sl2 cells assessed as tebufenozide-induced effect treated 24 hr before tebufenozide challenge measured after 24 hr by luciferase reporter gene assay; format: cell-based
T2 sequence (E3UJZ5 whole entry): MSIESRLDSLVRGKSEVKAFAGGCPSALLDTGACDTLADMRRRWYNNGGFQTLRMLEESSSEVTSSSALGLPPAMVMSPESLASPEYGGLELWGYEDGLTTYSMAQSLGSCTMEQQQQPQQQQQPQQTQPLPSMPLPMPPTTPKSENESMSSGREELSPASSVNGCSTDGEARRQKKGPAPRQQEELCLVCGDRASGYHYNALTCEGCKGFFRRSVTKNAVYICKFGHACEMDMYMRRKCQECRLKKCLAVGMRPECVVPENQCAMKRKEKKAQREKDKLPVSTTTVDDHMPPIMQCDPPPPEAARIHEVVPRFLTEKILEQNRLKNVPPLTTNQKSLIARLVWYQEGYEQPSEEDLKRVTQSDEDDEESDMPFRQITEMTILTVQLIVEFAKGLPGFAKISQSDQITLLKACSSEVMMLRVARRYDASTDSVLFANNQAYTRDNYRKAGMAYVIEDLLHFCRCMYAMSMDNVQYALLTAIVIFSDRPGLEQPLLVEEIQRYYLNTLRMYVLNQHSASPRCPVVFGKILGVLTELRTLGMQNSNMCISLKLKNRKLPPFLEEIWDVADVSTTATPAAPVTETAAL

[5] = Ratio of IC50 for ecdysone receptor in Bombyx mori Bm5 cells to LC50 for Bombyx mori Bm5 cells
[6] = test system: Spodoptera littoralis; assay: Cytotoxicity against Spodoptera littoralis Sl2 cells assessed as cell viability after 24 hr by MTT assay; details: read-out: pLC50 (converted)
[7] = target: T3, Ecdysone receptor (Bombyx mori) (UniProt P49881); assay: Agonist activity at ecdysone receptor in Bombyx mori Bm5 cells after 24 hr by luciferase reporter gene assay relative to tebufenozide; format: cell-based
T3 sequence (whole entry): T1 sequence (P49881 whole entry)

[8] = test system: Spodoptera littoralis; assay: Larvicidal activity against Spodoptera littoralis assessed as mortality applied topically after 1 week; format: functional
[9] = Ratio of LD50 for Spodoptera littoralis to LD50 for Bombyx mori; format: functional
[10] = Selectivity ratio of EC50 for ecdysone receptor in Bombyx mori Bm5 cells to EC50 for ecdysone receptor in Spodoptera littoralis Sl2 cells; format: cell-based
[11] = target: T1, Ecdysone receptor; assay: Agonist activity at ecdysone receptor in Bombyx mori Bm5 cells after 24 hr by luciferase reporter gene assay; format: cell-based; details: read-out: pEC50 (converted)
[12] = target: T4, Ecdysone receptor (Spodoptera littoralis) (UniProt E3UJZ5); assay: Agonist activity at ecdysone receptor in Spodoptera littoralis Sl2 cells after 24 hr by luciferase reporter gene assay relative to tebufenozide; format: cell-based
T4 sequence (whole entry): T2 sequence (E3UJZ5 whole entry)

[13] = target: T2, Ecdysone receptor; assay: Agonist activity at ecdysone receptor in Spodoptera littoralis Sl2 cells after 24 hr by luciferase reporter gene assay; format: cell-based; details: read-out: pEC50 (converted)
[14] = test system: Bombyx mori; assay: Larvicidal activity against Bombyx mori assessed as mortality applied topically after 1 week; format: functional

| SMILES | IC50 [1] | CC50 at 24 h [2] | Ratio [3] | IC50 [4] | Ratio [5] | CC50 at 24 h [6] | Efficacy [7] | pLD50 [8] | Ratio [9] | Ratio EC50 [10] | EC50 [11] | Efficacy [12] | EC50 [13] | pLD50 [14] |
| --- | --- | --- | --- | --- | --- | --- | --- | --- | --- | --- | --- | --- | --- | --- |
| Cc1ccc(NC2CC(C)N(C(=O)c3ccc(C)cc3)c3ccc(C)cc32)cc1 (stereo not given) | 26900 nM | 30200 nM | <0.15 | 74100 nM | 0.89 | > 501000 nM |  |  |  |  |  |  |  |  |
| CCc1ccc(C(=O)NN(C(=O)c2cc(C)cc(C)c2Cl)C(C)(C)C)cc1 |  |  |  |  |  |  | 85% | <4.41 | > 3.39 | 0.34 | 115 nM | 83% | 339 nM | 4.94 |
| CCc1ccc(C(=O)NN(C(=O)c2cc(C)cc(C)c2)C(C)(C)C)cc1 [TEBUFENOZIDE] |  |  |  |  |  |  | 100% | 6.58 | 10.5 | 0.51 | 1.12 nM | 100% | 2.19 nM | 7.6 |
| CC(C)(C)N(NC(=O)c1ccccc1F)C(=O)c1ccccc1Cl |  |  |  |  |  |  | 93% | <4.7 | > 468 | 0.5 | 145 nM | 105% | 288 nM | 7.37 |
| CCc1ccc(C(=O)NC2(C(=O)c3cc(C)cc(C)c3)CCCCC2)cc1 |  |  |  |  |  |  | 112% | <4.44 | > 23.4 | 0.65 | 77.6 nM | 101% | 120 nM | 6.08 |
| Cc1c(C(=O)NN(C(=O)c2ccccc2Cl)C(C)(C)C)ccc2c1CCCO2 |  |  |  |  |  |  | 106% | <4.4 | > 355 | 0.53 | 2.88 nM | 108% | 5.37 nM | 6.95 |
| Cc1cc(C)cc(C(=O)N(NC(=O)c2ccc(C(C)(C)C)cc2)C(C)(C)C)c1 |  |  |  |  |  |  | 88% | 4.72 | > 295 | 1.01 | 7.08 nM | 69% | 7.08 nM | 7.19 |
| CC1CCc2ccccc2N1C(=O)c1ccc(Cl)cc1 (stereo not given) | 47900 nM | 69200 nM | 0.53 | 55000 nM | 0.69 | 102000 nM |  |  |  |  |  |  |  |  |
| Cc1cc(C)cc(C(=O)C2(NC(=O)c3ccc4c(c3C)CCCO4)CCCCC2)c1 |  |  |  |  |  |  | 102% | <5.39 | > 13.8 | 1.29 | 4.37 nM | 106% | 3.39 nM | 6.53 |
| COc1cccc(C(=O)NN(C(=O)c2cc(C)cc(C)c2)C(C)(C)C)c1C [METHOXYFENOZIDE] |  |  |  |  |  |  | 103% | 7.68 | 3.16 | 0.56 | 3.39 nM | 100% | 6.03 nM | 8.18 |
| Cc1cc(C)c(Cl)c(C(=O)N(NC(=O)c2ccc3c(c2C)CCCO3)C(C)(C)C)c1 |  |  |  |  |  |  | 95% | <4.36 | > 4.47 | 0.49 | 33.1 nM | 114% | 67.6 nM | 5.01 |
| CCc1ccc(C(=O)NN(C(=O)c2ccccc2)C(C)(C)C)cc1 |  |  |  |  |  |  | 84% | <5.49 | > 39.8 | 0.16 | 17.4 nM | 110% | 110 nM | 7.09 |
| Cc1ccc(NC2CC(C)N(C(=O)c3ccc(C(C)(C)C)cc3)c3ccc(C)cc32)cc1 (stereo not given) | 24000 nM | 11500 nM |  | > 25100 nM | 2.09 | > 25100 nM |  |  |  |  |  |  |  |  |
| CC(C)(C)N(NC(=O)c1ccc(Cl)cc1)C(=O)c1ccccc1 [HALOFENOZIDE] |  |  |  |  |  |  | 95% | 5.43 | 12.3 | 0.17 | 77.6 nM | 107% | 457 nM | 6.52 |
